Data: ChEMBL document CHEMBL1201862, “PubChem BioAssay data set” (2004)
The source made the active and inactive calls.

What was measured:
Protein RecA = biological target: T1, Protein RecA (Mycobacterium tuberculosis, UniProt P9WHJ3); experiment: Fluorescence Cell-Free Homogeneous Dose Retest to Identify Inhibitors of RecA-Intein Splicing Activity. [Related pubchem assays (depositor defined):AID2097, AID2223, AID489010, AID492950]; type: functional
T1 sequence (P9WHJ3 whole entry): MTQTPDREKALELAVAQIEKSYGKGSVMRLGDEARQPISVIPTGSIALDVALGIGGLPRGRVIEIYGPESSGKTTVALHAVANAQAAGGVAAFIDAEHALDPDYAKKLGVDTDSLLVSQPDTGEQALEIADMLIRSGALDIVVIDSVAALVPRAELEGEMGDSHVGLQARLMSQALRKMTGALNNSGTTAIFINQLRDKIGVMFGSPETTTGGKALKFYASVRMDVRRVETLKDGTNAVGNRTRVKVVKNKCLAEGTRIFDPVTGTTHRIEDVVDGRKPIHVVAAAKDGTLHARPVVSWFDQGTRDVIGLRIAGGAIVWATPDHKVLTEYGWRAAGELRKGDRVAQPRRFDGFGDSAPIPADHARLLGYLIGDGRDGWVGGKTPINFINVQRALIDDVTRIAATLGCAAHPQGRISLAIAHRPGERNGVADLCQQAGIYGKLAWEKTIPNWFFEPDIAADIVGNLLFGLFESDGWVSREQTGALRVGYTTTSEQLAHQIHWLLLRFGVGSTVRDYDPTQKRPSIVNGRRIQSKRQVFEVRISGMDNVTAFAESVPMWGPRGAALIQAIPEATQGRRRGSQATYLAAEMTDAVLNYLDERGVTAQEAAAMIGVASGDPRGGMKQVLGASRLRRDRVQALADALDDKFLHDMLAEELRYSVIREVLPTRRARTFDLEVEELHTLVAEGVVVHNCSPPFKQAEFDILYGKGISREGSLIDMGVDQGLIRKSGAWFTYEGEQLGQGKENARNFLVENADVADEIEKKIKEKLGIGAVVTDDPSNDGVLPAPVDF

[1] = biological target: T2, Mitochondrial peptide methionine sulfoxide reductase (Bos taurus, UniProt P54149); experiment: Absorbance-based biochemical high throughput dose response assay for activators of Methionine sulfoxide reductase A (MsrA).; type: functional
T2 sequence (P54149 whole entry): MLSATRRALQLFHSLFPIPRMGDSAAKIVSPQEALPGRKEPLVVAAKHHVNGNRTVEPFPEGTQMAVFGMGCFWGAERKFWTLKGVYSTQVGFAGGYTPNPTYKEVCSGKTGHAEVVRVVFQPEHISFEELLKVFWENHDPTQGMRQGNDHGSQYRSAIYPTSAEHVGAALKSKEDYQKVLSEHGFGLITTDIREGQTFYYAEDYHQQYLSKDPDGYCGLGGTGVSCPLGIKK

[2] = biological target: T3, Tyrosyl-DNA phosphodiesterase 2 (Homo sapiens, UniProt O95551); experiment: potency against TDP2 phosphodiesterase activity – biochemical, epi absorbance, IC50, dose response (AID 743297)
T3 sequence (O95551 whole entry): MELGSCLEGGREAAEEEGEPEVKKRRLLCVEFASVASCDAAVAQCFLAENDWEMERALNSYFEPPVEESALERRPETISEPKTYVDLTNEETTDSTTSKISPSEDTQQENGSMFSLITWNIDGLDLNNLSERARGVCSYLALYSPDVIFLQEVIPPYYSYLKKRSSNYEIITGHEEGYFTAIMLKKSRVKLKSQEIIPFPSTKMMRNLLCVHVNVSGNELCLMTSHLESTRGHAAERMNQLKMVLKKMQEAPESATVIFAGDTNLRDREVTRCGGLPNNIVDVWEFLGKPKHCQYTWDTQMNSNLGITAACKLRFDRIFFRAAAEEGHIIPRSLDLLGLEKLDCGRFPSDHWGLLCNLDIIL

cells = type: functional
[3] = viability of HCT116 lacking mutant beta-catenin – cell-based, human colon tumor, dose response (AID 1045); type: functional;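 also: HCT116 colon tumor cells with beta catenin knocked out; cells exposed to compound for 60 hours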
[4] = viability of PTEN-deleted HCT116 cells – cell-based, HCT116 PTEN knockout, dose response (AID 1047); type: functional;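 also: HCT116 colon tumor cells with PTEN knocked out; cells exposed to compound for 60 hours before readout; potency for loss of cell viability measured by luminescence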
HEK293 = experiment: cells; type: functional, cell-based; conditions: Homo sapiens;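 also: HEK-293-T cells carrying an NF-kB luciferase reporter; cells exposed to compound overnight before the viability read; potency for loss of cell viability meaning cytotoxicity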
[5] = biological target: Tyrosine-protein kinase receptor UFO (Homo sapiens, UniProt P30530); type: functional
[6] = biological target: 3-phosphoinositide-dependent protein kinase 1 (Homo sapiens, UniProt O15530); type: functional;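 also: value comes from the Navigating the Kinome panel, PDPK1 member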
[7] = biological target: Mitogen-activated protein kinase 12 (Homo sapiens, UniProt P53778); type: functional;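 also: measured as one member of a kinome-wide kinase profiling panel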
[8] = biological target: Tyrosine-protein kinase JAK3 (Homo sapiens, UniProt P52333); type: functional
[9] = biological target: Glycogen synthase kinase-3 beta (Homo sapiens, UniProt P49841); type: functional;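 also: value comes from a broad kinome profiling panel, with GSK3B as the panel member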
Beta-galactosidase = Beta-galactosidase (Escherichia coli, UniProt Q8VNN2); type: functional
Beta-galactosidase, sequence (Q8VNN2 whole entry): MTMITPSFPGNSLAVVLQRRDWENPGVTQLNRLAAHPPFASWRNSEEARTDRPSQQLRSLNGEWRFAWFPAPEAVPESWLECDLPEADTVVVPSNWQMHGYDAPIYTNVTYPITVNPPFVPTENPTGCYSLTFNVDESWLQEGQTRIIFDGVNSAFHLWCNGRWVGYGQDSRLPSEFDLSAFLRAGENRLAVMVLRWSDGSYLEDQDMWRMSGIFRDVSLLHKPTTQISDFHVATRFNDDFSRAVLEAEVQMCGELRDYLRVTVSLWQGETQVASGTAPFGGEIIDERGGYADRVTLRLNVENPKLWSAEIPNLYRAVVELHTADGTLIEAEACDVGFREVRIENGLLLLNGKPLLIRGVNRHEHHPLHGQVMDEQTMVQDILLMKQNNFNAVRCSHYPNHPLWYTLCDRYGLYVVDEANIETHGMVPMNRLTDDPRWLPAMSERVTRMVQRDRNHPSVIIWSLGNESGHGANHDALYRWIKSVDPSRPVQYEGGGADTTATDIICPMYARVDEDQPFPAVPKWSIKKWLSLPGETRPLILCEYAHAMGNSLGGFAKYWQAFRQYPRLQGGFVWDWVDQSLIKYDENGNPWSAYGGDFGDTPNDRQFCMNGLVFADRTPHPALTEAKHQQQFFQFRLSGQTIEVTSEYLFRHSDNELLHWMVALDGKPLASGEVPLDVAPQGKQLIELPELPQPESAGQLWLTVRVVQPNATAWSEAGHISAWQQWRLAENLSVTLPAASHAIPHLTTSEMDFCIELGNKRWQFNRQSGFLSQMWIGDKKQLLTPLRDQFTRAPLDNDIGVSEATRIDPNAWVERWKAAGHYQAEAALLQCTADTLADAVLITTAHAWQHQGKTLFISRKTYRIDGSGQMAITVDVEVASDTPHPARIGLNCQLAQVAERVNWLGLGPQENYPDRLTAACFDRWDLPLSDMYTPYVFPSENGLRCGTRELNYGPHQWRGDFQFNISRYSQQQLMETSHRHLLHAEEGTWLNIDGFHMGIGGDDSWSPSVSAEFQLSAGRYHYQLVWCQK

Tyrosine-protein kinase JAK3, sequence (P52333 whole entry): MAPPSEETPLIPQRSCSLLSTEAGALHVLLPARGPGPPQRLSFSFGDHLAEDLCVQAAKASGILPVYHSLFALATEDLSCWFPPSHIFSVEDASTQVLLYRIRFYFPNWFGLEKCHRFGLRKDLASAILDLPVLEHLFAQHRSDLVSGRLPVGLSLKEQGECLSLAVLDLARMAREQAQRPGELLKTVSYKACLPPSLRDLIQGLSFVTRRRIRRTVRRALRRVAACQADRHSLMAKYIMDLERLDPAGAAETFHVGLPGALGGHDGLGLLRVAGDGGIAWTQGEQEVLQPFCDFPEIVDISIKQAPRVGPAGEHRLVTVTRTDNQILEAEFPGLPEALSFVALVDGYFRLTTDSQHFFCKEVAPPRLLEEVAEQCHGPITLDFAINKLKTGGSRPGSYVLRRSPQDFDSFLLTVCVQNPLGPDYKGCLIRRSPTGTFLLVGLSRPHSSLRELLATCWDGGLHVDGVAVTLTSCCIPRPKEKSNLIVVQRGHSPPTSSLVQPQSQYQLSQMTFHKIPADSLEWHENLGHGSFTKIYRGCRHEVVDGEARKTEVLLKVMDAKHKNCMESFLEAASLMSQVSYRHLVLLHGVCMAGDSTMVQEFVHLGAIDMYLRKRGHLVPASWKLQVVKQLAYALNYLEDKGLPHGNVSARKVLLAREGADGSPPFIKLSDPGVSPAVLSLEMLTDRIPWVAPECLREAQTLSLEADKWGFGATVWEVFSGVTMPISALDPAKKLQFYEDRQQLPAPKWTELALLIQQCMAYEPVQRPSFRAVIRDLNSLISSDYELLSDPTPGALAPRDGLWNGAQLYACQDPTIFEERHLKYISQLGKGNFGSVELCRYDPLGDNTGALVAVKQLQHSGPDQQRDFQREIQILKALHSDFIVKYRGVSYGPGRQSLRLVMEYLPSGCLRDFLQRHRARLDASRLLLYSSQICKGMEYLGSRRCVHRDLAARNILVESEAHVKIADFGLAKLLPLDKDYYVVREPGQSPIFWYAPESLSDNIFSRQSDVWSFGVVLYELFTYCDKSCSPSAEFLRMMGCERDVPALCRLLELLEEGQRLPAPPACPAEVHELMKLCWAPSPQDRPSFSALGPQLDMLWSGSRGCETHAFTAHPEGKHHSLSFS
Tyrosine-protein kinase receptor UFO, sequence (P30530 whole entry): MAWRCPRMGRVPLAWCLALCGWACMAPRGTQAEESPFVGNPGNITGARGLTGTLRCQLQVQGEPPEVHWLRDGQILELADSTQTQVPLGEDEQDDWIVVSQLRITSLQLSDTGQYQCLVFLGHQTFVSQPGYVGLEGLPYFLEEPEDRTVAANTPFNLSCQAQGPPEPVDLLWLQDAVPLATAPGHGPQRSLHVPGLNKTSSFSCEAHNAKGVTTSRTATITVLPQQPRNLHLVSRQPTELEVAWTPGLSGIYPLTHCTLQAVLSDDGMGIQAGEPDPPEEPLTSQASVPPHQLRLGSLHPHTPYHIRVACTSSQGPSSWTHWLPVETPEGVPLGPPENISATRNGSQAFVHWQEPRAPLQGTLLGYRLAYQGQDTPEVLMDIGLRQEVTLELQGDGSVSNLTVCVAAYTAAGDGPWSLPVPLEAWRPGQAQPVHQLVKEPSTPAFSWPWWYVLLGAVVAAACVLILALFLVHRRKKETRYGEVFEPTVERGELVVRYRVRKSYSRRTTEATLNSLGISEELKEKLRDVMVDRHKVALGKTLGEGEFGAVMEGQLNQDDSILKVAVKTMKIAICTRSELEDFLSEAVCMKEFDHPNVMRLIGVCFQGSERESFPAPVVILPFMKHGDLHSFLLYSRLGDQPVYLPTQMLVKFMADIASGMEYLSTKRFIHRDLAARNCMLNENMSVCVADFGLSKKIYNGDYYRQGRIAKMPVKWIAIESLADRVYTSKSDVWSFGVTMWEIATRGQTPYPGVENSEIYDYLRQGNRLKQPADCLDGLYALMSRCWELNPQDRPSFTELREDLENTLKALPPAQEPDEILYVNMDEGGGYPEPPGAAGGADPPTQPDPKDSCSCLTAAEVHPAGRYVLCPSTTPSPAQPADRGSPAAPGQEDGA
3-phosphoinositide-dependent protein kinase 1, sequence (O15530 whole entry): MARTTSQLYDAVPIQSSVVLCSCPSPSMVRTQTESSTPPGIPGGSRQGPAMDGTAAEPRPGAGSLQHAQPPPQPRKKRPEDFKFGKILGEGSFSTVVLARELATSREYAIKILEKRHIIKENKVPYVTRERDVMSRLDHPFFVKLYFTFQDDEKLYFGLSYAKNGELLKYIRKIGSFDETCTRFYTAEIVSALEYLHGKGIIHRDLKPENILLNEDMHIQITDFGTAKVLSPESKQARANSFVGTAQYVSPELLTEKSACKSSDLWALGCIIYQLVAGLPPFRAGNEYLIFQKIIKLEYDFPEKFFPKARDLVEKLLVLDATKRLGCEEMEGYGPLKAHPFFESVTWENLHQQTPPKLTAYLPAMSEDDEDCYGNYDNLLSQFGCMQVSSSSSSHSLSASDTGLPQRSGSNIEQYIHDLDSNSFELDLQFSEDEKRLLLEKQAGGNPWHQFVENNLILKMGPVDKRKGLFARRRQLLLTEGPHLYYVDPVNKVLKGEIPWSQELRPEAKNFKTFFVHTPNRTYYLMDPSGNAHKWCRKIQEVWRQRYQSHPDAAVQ
Glycogen synthase kinase-3 beta, sequence (P49841 whole entry): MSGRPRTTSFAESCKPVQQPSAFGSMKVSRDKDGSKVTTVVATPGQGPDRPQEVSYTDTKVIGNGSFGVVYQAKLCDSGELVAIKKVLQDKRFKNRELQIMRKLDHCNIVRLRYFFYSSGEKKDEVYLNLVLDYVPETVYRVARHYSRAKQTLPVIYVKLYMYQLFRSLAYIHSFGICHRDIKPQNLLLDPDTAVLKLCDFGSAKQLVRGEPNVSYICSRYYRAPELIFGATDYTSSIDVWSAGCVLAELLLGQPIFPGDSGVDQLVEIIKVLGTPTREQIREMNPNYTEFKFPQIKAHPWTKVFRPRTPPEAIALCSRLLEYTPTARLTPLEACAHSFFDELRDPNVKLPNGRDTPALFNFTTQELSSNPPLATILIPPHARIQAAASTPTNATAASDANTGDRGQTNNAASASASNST
Mitogen-activated protein kinase 12, sequence (P53778 whole entry): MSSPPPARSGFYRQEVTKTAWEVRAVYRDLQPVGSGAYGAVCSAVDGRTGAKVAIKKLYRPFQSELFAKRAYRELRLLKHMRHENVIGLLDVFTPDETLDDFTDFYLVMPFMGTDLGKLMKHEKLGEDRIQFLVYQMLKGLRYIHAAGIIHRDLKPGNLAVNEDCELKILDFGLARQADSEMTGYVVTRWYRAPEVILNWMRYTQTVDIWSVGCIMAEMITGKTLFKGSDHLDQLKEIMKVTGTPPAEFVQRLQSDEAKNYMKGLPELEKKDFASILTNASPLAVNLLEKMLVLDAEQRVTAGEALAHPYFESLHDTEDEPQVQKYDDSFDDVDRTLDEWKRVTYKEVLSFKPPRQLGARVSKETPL

In the case of O=C1C(Cl)=C(NCc2cccnc2)C(=O)c2ccccc21, the EC50 (Protein RecA) is reported as 2.17 µM (active) and the EC50 [1] is reported as > 104 µM (inactive).
With Nc1ccc(Br)c2cccnc12 the IC50 [2] was 75.5 µM (inactive) and the IC50 (cells) was > 50 µM (active).
In the case of CN(C)c1ncc(C2=C(Cl)C(=O)C(N3CCCC3)=C(Cl)C2=O)s1, the EC50 (Protein RecA) is reported as 3.81 µM (active), the EC50 [3] is reported as 6.06 µM (active) and the EC50 [4] is reported as 5.41 µM (active).
In the case of Cc1ccc(C(=O)c2c(C)oc3c2C(=O)C(=O)c2ccccc2-3)cc1, the EC50 [3] is reported as 2.66 µM (active) and the EC50 [4] is reported as 3.11 µM (active).
With O=C1C(O)=C/C(=N\c2ccccc2O)c2ccccc21 the EC50 (Protein RecA) was 12.3 µM (active), the EC50 [1] was > 104 µM (inactive) and the IC50 [2] was 37.7 µM (inactive). For the same molecule, the IC50 (HEK293) was > 20 µM (inactive).
For O=C1NC(=S)SC1=C1C(=O)Nc2ccc(Br)cc21, the Ki [5] was > 2 µM (inactive), the Ki [6] was > 3.98 µM (inactive) and the Ki [7] was > 6.31 µM (inactive). The Ki [8] was > 1.58 µM (inactive) and the Ki [9] was 0.501 µM (active).
In the case of Cc1ccc(Nc2cc(C)nn2-c2nc(C)cc(O)n2)cc1, the EC50 (Protein RecA) is reported as 61.4 µM (active) and the EC50 (Beta-galactosidase) is reported as > 31.5 µM (inactive).
